We go through 12 molecules from article PMC4257840 (Journal of Medicinal Chemistry, 2014).

Series [1] is described as follows: Plasma protein binding, Rapid Equilibrium Dialysis. It counts as in vitro ADME. Conditions: both sexes, Sprague Dawley, plasma (EDTA K2, pooled), rat plasma, 4 h at 37 °C, read-out: PPB (converted). As to the method: (§1) Appendix 2. Pharmaco kinetics an d P l a s ma Protein Binding […]
(§2) Plasma Protein Binding Assay. PPB was determined with a Rapid Equilibrium Dialysis device using 8 kDa molecular weight cut-off inserts (Fisher Scientific UK Ltd, Leicest ershire, UK) as described b y the manufacturer. R at (Sprague Dawl e y strain) plasma EDTA K2 (mixed gender, pooled, SeraLab, West Sussex, UK) was thawed and centrifuged at 13,000 x g for 10 min to remove precipitates before being spiked with compounds (5 µM). The concentrations of compounds in the plasma and buffer chambers were determined b y LC -MS-MS (AB Sciex 3200 QTrap) anal ysis after 4 h incubation at 37 °C. Binding was calculated from the concentration percentage in both chambers as shown below. Assays were p erfo rmed in replicate and the data

For the next series, the target named is human liver Cat B (Homo sapiens, UniProt P07858). Nature of the series: Cathepsin B inhibition assay. To be noted: read-out: Cat B IC50; mean ± SE.
Series [2] addresses T1, Der p 1 (Dermatophagoides pteronyssinus, UniProt P08176).
T1 sequence (P08176 99-320): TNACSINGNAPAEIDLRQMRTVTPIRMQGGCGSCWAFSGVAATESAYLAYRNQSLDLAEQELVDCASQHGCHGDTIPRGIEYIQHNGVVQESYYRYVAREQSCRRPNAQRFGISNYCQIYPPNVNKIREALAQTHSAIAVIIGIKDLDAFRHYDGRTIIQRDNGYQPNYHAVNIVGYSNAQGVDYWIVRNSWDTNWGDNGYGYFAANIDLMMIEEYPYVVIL
Nature of the series: biochemical. It counts as biochemical. To be noted: mean ± SE.
Method: Automated screening of inhibitory activity toward group 1 HDM peptidase allergens was performed as described elsewhere[25],[43] with the minor modification that Der p 1 or Der f 1 were incubated with inhibitors for 20 min prior to initiation of reactions by addition of substrate. In initial screening, the activity of each compound was measured using a series of 10 doubling dilutions from a starting concentration of 50 μM. […] Assays were performed in triplicate for calculation of mean ± SE IC50 values.

A short description of series [3]: Pharmacokinetics after oral and iv dosing to rats. It counts as in vivo, Sprague-Dawley rat. Conditions: for Cmax / bioavailability: male, Sprague-Dawley, plasma; for Cmax / bioavailability / free conc Cmax: rat; for Cmax / free conc Cmax: 5 mg/kg po; for bioavailability: po, 5 mg/kg, read-out: F % (bioavailability). The method, then:
as §1
Pharma cokinetics. In vivo PK characteristics were determined using non- fasted Sprague-Dawle y rats (mal e, 200-300 g, 10- 16 weeks of age) with groups of three animals per route per compound. Soluble formulations were developed and verified b y HP LC/UV s o that compounds were dosed discretel y b y the iv (1 mg/kg, 1 mL/kg) and po (5 mg/kg, 5 mL/kg) routes. Blood samples were obtained at various times after dosing and plasma prepared for LC -MS-MS quantification of the test substance after inclusion of an intern al standard . PK p aramet ers were calculated usin g a non -compartmental model in WinNonlin v5.2.
as §2

Series [4] can be described thus: Measurement of LogD7.4 (n-octanol/PBS shake). It counts as physicochemical. Conditions: for logD at 1.5 h: single determination, n-octanol/PBS pH 7.4, read-out: Log D7.4. As to the method:
Appendix 4. Measurement of LogD7.4
Test compounds (~1 mg) were weighed into 2 mL HPLC vials. n- Octanol (0.7 mL), pre-saturated with 10 mM phosphate buffered saline pH7.4 (PBS), was added to each vial followed b y PBS (0. 7 mL), which had been pre-saturat ed with n-octanol. The mixtures were shaken for 90 min and then centrifuged for 10 min at 4,000 rpm. The upper organic l ayer (0.2 m L) and the aqueous la yer (0.5 mL) were removed from each vial and anal yz e d b y LC -MS. Mass spect ral anal ysis was used to confirm peak identity whilst the concentration of compound was assessed by a diode arra y det ecto r. The logD for each compound was calculated b y takin g th e lo g of its concentration ratio between the oct anol and aqueous la ye r s.Given the robustness of the assa y and the fact that the info rmation was us ed onl y for gen eral guid ance, thes e measu rements were based on singlicate det erminations.

Series [5] relates to nonsensitized rats challenged with a natural mixture of HDM allergens. To be noted: for efficacy, inhibition of eosinophil recruitment: rat, in vivo; for duration of protection: trend of inhibition of eosinophil recruitment with increasing pre-treatment interval: i.t. aerosol typically 60-360 min prior to allergen challenge, unsensitised BN rats.
A further series concerns the target Der f 1 (Dermatophagoides farinae, UniProt P16311). Briefly: Group 1 HDM peptidase allergen inhibition assay (Der f 1). It counts as biochemical, D. farinae. Conditions: in vitro enzymatic assay, mean ± SE. As to the method: Automated screening of inhibitory activity toward group 1 HDM peptidase allergens was performed as described elsewhere[25],[43] with the minor modification that Der p 1 or Der f 1 were incubated with inhibitors for 20 min prior to initiation of reactions by addition of substrate. In initial screening, the activity of each compound was measured using a series of 10 doubling dilutions from a starting concentration of 50 μM. Compounds showing optimizable activity were cherry-picked for multiple (up to six) rounds of rescreening to confirm activity and stability and to determine IC50 values over a range of concentrations that were compound-directed by initial screening. Assays were performed in triplicate for calculation of mean ± SE IC50 values.

The test system of series [6] is sensitized BN rats challenged with mixed HDM allergens. Briefly: HDM allergen challenge of sensitized BN rats, BAL cells. It counts as in vivo, Brown Norway rat. To be noted: single dose 12 μg/kg (18 nmol/kg) 2 h prior to challenge, BAL 48 h.
From the text: For other studies, rats were actively sensitized to a natural mixture of HDM allergens prepared from laboratory cultures of Dermatophagoides pteronyssinus. Animals were sensitized by the ip route in the absence of additional adjuvant on day 0, 7, and 14. […] Negative control groups comprised naïve, unsensitized animals or those sham-sensitized with vehicle solution.
Test ADIs were delivered as intratracheal aerosols of 25–30 μm mass median diameter from a Penn-Century IA-1B microsprayer at various times prior to allergen challenge. Allergen or vehicle challenge was similarly delivered by Penn-Century microsprayer on day 21 of the protocol. These procedures were conducted under anesthesia with isoflurane in oxygen. Test ADIs were generally dosed in a constant 50:1 molar ratio to the Der p 1 content of the allergen challenge mixture.
Animals were killed by sodium pentobarbital overdose 48 h after allergen challenge because this is the optimal sampling point to assess the recruitment of eosinophils (our unpublished observations). The airways were lavaged with 3 × 4 mL aliquots of Hanks’ Balanced Salt Solution and the recovered cells pooled and counted automatically (ADVIA; Bayer Healthcare, Diagnostics Division, UK). […] Cells were counted by an independent observer using light microscopy under oil immersion (×1000). […]
For series [7], the system named is rat alveolar macrophage line NR8383. Nature of the series: Stability in the presence of airway macrophages. It is filed as in vitro ADME.
Method: Stability in the presence of epithelial cells and ma crophages.
NR8383 Airway macroph a ges
were grown in suspension culture in F12K, collected b y centrifugation, washed in serum-free
exposed to test compounds in serum-free F12K at a standard concentration of 100 nM in a 5%
CO2 environment at 37 °C. Samples were removed at selected time points for quantitative
Assa ys w ere p er formed in replicate and t he data ex pressed as mean ± SE.
In series [8] the target is T1, Der p 1. Also on record: method as in PMID 9871695. To be noted: irreversible acyloxymethyl ketone inhibitors, Figure 1; cited from earlier work.
In another series the target is recombinant human Cat S (Homo sapiens, UniProt P25774). Briefly: Cathepsin S inhibition assay. It is filed as biochemical. To be noted: in vitro enzymatic assay, mean ± SE; read-out: Cat S.
The mark [9] stands for this setting: 5 mg/kg po compared with 1 mg/kg iv, nonfasted Sprague–Dawley rats, mean ± SE, n = 3.

Sequence of Der f 1 (P16311 99-321): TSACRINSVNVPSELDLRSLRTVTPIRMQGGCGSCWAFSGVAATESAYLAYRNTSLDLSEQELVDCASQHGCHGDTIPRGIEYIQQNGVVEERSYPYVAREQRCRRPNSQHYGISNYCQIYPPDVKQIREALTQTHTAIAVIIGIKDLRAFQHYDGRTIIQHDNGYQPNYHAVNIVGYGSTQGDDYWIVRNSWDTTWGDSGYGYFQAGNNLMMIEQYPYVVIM
Sequence of recombinant human Cat S (P25774 115-331): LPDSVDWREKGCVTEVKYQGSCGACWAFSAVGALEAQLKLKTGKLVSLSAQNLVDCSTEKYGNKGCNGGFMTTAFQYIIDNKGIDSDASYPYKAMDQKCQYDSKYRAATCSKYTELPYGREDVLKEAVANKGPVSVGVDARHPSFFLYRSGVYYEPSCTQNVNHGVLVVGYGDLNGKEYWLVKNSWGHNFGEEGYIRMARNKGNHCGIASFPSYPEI
Method for human liver Cat B: Inhibition of Cat B was measured as described with modifications.[25] […] Progress curves were followed at 30 °C by detection of fluorescence at 320/420 nm (excitation/emission).
(§3) In all cases, for reactions involving inhibitors, the amount of reaction buffer was adjusted to 60 μL, the inhibitor added as a 10 μL aliquot, and incubated for 20 min with the enzyme prior to reaction start.
Method for recombinant human Cat S: as §3

Regarding `CC(C)[C@H](NC(=O)[C@H](C)NC(=O)[C@@H](N1Cc2ccccc2C1=O)C(C)(C)C)C(=O)C(=O)NCc1ccccc1` [Compound 28, (S)-3-{(S)-2-[(S)-3,3-Dimethyl-2-(1-oxo-1,3-dihydro-isoindol-2-yl)-butyrylamino]-propionylamino}-4-methyl-2-oxo-pentanoic Acid Benzylamide], the fraction unbound at 4 h, 5 µM in series [1] was 0.02. The IC50 on human liver Cat B came out at 429 ± 65 nM; at Der p 1 [2], 7 ± 1 nM. This molecule gave a Cmax in series [3] (mean ± SE, n = 3) of 663 ± 26 nM. Also, in [3] (setting [9]), the bioavailability was determined as 20 ± 1%. For the same molecule, in series [3], the “free conc Cmax” value turned out to be 11 ± 0 nM. The logD at 1.5 h in [4] stood at 3.6.
As to `CC(C)[C@H](NC(=O)[C@H](C)NC(=O)[C@@H](NC(=O)C1CC[N+](C)(C)CC1)C(C)(C)C)C(=O)C(=O)NCc1ccccc1.O=C[O-]` [Compound 32, 4-{(S)-1-[(S)-1-((S)-1-Benzylaminooxalyl-2-methyl-propylcarbamoyl)-ethylcarbamoyl]-2,2-dimethyl-propylcarbamoyl}-1,1-dimethyl-piperidinium Formate], the fraction unbound at 4 h, 5 µM in [1] is 0.388. The “efficacy, inhibition of eosinophil recruitment” value in series [5] is “Good efficacy”. In addition, at human liver Cat B, the IC50 came out at 274 ± 44 nM. Besides, the IC50 at Der f 1 was 4 nM. Also, in series [6], the “eosinophil recruitment” value is on record as “marked inhibition” and the “increase in total nucleated cells recoverable by BAL” value is recorded as “significantly blunted”. In addition, in series [3] (setting [9]), the “F % (bioavailability)” value was found to be 0.6 ± 0.2% and the bioavailability is 1%. The Cmax in [3] (mean ± SE, n = 3) was found to be 20 ± 13 nM. For the same molecule, the “free conc Cmax” value in series [3] is given as 8 ± 0 nM. Further, in [4], the logD at 1.5 h is -0.9.
Take `CC(C)C(NC(=O)[C@H](C)NC(=O)[C@H](Cc1ccccc1)NC(=O)c1ccccc1)C(=O)C(=O)NC1CCCCC1` (mixture of isomers) [Compound 19]: the IC50 at human liver Cat B turned out to be 52 ± 5 nM; against Der p 1 [2], 18 ± 2 nM. For the same molecule, the “remaining unchanged (processing by airway macrophages)” value in series [7] (after 2 h) is around 70%.
In the case of `CCCC[C@H](NC(=O)[C@H](C)NC(=O)[C@@H](NC(=O)c1ccccc1)C(C)C)C(=O)COC(=O)c1ccccc1` [Compound 1], the “Kobs/[I]” value on Der p 1 [8] is 210000 M⁻¹ s⁻¹.
As to `CC(C)[C@H](NC(=O)[C@H](C)NC(=O)[C@@H](NC(=O)c1ccccc1)C(C)(C)C)C(=O)C(=O)NC1CC1` [Compound 35], the fraction unbound at 4 h, 5 µM in series [1] is 0.155. The “duration of protection: trend of inhibition of eosinophil recruitment with increasing pre-treatment interval” value in series [5] is reported as “rise to well-maintained”. In addition, the IC50 is 417 ± 25 nM at human liver Cat B and 17 ± 1 nM against Der p 1 [2]. For the same molecule, the peak level in series [3] (mean ± SE, n = 3) (Cmax) was 1140 ± 268 nM. Besides, in [3] (setting [9]), the bioavailability came out at 90 ± 11%. Also, the “free conc Cmax” value in series [3] is 176 ± 0 nM. The logD in [4] (pH 7.4, versus compound 22, read-out: reduction of measured log D on replacing cyclohexyl (22) by cyclopropyl) was around 1.5. The logD at 1.5 h in series [4] is 2.4.
In the case of `CC(C)[C@H](NC(=O)[C@H](C)NC(=O)[C@H](Cc1ccccc1)NC(=O)c1ccccc1)C(=O)C(=O)NCC(=O)N1CC[N+](C)(C)CC1.O=C[O-]` [Compound 52, 4-(2-{(S)-3-[(S)-2-((S)-2-Benzoylamino-3-phenyl-propionylamino)-propionylamino]-4-methyl-2-oxo-pentanoylamino}-acetyl)-1,1-dimethyl-piperazin-1-ium Formate], the fraction unbound at 4 h, 5 µM in [1] is 0.365. The figures for the IC50 on recombinant human Cat S, on human liver Cat B and at Der f 1 were 114 ± 7 nM, above 2500 nM and 11 ± 1 nM, respectively. The “efficacy, inhibition of eosinophil recruitment” value in series [5] is given as “Good efficacy”. For the same molecule, in series [3] (mean ± SE, n = 3), the highest level (Cmax) was 7 ± 2 nM. The bioavailability in series [3] (setting [9]) stood at 0%. Further, the “free conc Cmax” value in series [3] is on record as 3 ± 0 nM. Besides, the logD at 1.5 h in series [4] was -0.6.
For `CCCC[C@H](NC(=O)[C@H](C)NC(=O)[C@H](Cc1ccccc1)NC(=O)c1ccccc1)C(=O)C(=O)NC1CCCCC1` [Compound 5, N-{(S)-1-[(S)-1-((S)-1-Cyclohexylaminooxalyl-pentylcarbamoyl)-ethylcarbamoyl]-2-phenyl-ethyl}-benzamide], the “degraded by airway macrophages” value in series [7] (over a 2 h period) is above 50%.
`CC(C)[C@H](NC(=O)[C@H](C)NC(=O)[C@@H](NC(=O)c1ccnc2ccccc12)C(C)(C)C)C(=O)C(=O)NCc1ccccc1` [Compound 27, Quinoline-4-carboxylic Acid {(S)-1-[(S)-1-((S)-1-Benzylaminooxalyl-2-methyl-propylcarbamoyl)-ethylcarbamoyl]-2,2-dimethyl-propyl}-amide]: in [5], the “duration of protection: trend of inhibition of eosinophil recruitment with increasing pre-treatment interval” value is “rise to a peak”. Further, the results for the IC50 on human liver Cat B and against Der p 1 [2] were 3400 ± 187 nM and 18 ± 1 nM, respectively. Besides, the logD at 1.5 h in [4] was 3.4.
As for `CC(C)[C@H](NC(=O)[C@H](C)NC(=O)[C@H](Cc1ccccc1)NC(=O)c1cccc2ccccc12)C(=O)C(=O)NCC(=O)N1CCN(C)CC1` [Compound 53, Naphthalene-1-carboxylic Acid [(S)-1-((S)-1-{(S)-2-Methyl-1-[2-(4-methyl-piperazin-1-yl)-2-oxo-ethylaminooxalyl]-propylcarbamoyl}-ethylcarbamoyl)-2-phenyl-ethyl]-amide], in [5], the “duration of protection: trend of inhibition of eosinophil recruitment with increasing pre-treatment interval” value was “waned”. Moreover, the results for the IC50 on human liver Cat B and against Der p 1 [2] were 540 ± 28 nM and 20 ± 3 nM, respectively. For the same molecule, in series [4], the logD at 1.5 h came to 2.
In the case of `CC(C)[C@H](NC(=O)[C@H](C)NC(=O)[C@@H](NC(=O)c1ccncc1)C(C)(C)C)C(=O)C(=O)NC1CCCCC1` [Compound 29, N-{(S)-1-[(S)-1-((S)-1-Cyclohexylaminooxalyl-2-methyl-propylcarbamoyl)-ethylcarbamoyl]-2,2-dimethyl-propyl}-isonicotinamide], in series [5], the “duration of protection: trend of inhibition of eosinophil recruitment with increasing pre-treatment interval” value is “rise to a peak”. The IC50 at human liver Cat B was 231 ± 17 nM; on Der p 1 [2], 13 ± 1 nM. Also, in series [4], the logD at 1.5 h turned out to be 2.8.
Consider `CC(C)[C@H](NC(=O)[C@H](C)NC(=O)[C@@H](NC(=O)c1ccccc1)C(C)(C)C)C(=O)C(=O)NC1CCCCC1` [Compound 22, N-{(S)-1-[(S)-1-((S)-1-Cyclohexylaminooxalyl-2-methyl-propylcarbamoyl)-ethylcarbamoyl]-2,2-dimethyl-propyl}-benzamide], for which the IC50 at human liver Cat B came to 378 ± 27 nM; against Der p 1 [2] it was 14 ± 3 nM. Besides, in [7] (over 2 h), the “degradation by airway macrophages” value is “no significant degradation”. The logD at 1.5 h in series [4] worked out at 3.9.
In the case of `CCCC[C@H](NC(=O)[C@H](C)NC(=O)[C@@H](NC(=O)c1ccccc1)C(C)C)C(=O)COC(=O)c1c(C(F)(F)F)cccc1C(F)(F)F` [Compound 2], on Der p 1 [8], the “Kobs/[I]” value was 1.6e+06 M⁻¹ s⁻¹.
